Experimental data from ChEMBL document CHEMBL5523670, “Structure activity relationship and target prediction for ABX464 analogues in Caenorhabditis elegans” (Bioorg Med Chem, 2024).

Assays:
Caenorhabditis elegans [1] = assay: Anthelmintic activity against Caenorhabditis elegans N2 Bristol assessed as reduction in motility of young adults measured for 40 hrs; type: functional, organism-based; conditions: for IC50: Caenorhabditis elegans, N2 Bristol, 40 h
Caenorhabditis elegans [2] = assay: Anthelmintic activity against Caenorhabditis elegans N2 Bristol assessed as maximum inhibition of motility measured for 40 hrs; type: functional
[3] = Cytotoxicity against human HepG2 cells measured for 48 hrs by crystal violet staining based analysis; type: toxicity, cell-based
[4] = Mitotoxicity against human HepG2 cells assessed as reduction in cell viability measured for 48 hrs by crystal violet staining based analysis; type: toxicity

Row | IC50 (Caenorhabditis elegans [1]) [µM] | SMILES | also measured
1 | 14 | Clc1ccc(Nc2ccc3cccc(Cl)c3n2)cc1 | Imax (Caenorhabditis elegans [2]): 58%
2 | > 40 | Clc1cccc2ccc(Nc3ccc(-c4ccccc4)cc3)nc12 | –
3 | > 40 | Clc1cccc2ccc(Nc3cccc(-c4ccccc4)c3)nc12 | –
4 | > 40 | N#Cc1cccc(Nc2ccc3cccc(Cl)c3n2)c1 | –
5 | 0.1 | CO/N=C1\C[C@]2(C[C@@H]3C[C@@H](C/C=C(\C)C[C@@H](C)/C=C/C=C4\CO[C@@H]5[C@H](O)C(C)=C[C@@H](C(=O)O3)[C@]45O)O2)O[C@H](/C(C)=C/C(C)C)[C@H]1C [MOXIDECTIN] | –
6 | > 40 | Oc1ccc(Nc2ccc3cccc(Cl)c3n2)cc1 | –
7 | > 40 | FC(F)(F)c1ccc(Nc2ccc3cccc(Cl)c3n2)cn1 | –
8 | > 40 | FC(F)(F)Oc1ccccc1Nc1ccc2cccc(Cl)c2n1 | –
9 | 3.2 | FC(F)(F)c1cccc(Nc2ccc3cccc(Cl)c3n2)c1 | Imax (Caenorhabditis elegans [2]): 55%
10 | > 40 | COc1ccc(Nc2ccc3cccc(Cl)c3n2)cc1 | –
11 | 7.1 | FC(F)(F)Oc1ccc(Nc2ccc3c(Cl)cccc3n2)cc1 | CC50 at 48 h [3]: ≥ 40 µM; CC50 at 48 h [4]: ≥ 40 µM
12 | > 40 | Clc1ccccc1Nc1ccc2cccc(Cl)c2n1 | –
13 | > 40 | FC(F)(F)c1ccccc1Nc1ccc2cccc(Cl)c2n1 | –
14 | > 40 | FC(F)(F)Oc1ccc(Nc2nc3ccccc3cc2Cl)cc1 | –
15 | > 40 | FC(F)(F)Oc1ccc(Nc2ccccn2)cc1 | –
16 | > 40 | FC(F)(F)c1ccc(Nc2ccc3cccc(Cl)c3n2)nc1 | –
17 | > 40 | FC(F)(F)Oc1ccc(Oc2ccc3cccc(Cl)c3n2)cc1 | –
18 | > 40 | N#Cc1cccc2ccc(Nc3ccc(OC(F)(F)F)cc3)nc12 | –
19 | 7 | FC(F)(F)c1cc(Nc2ccc3cccc(Cl)c3n2)ccc1Cl | Imax (Caenorhabditis elegans [2]): 82%
20 | > 40 | N#Cc1ccccc1Nc1ccc2cccc(Cl)c2n1 | –
21 | 29 | Fc1cccc(Nc2ccc3cccc(Cl)c3n2)c1 | –
22 | 21 | COc1cccc(Nc2ccc3cccc(Cl)c3n2)c1 | –
23 | > 40 | COc1cccc2ccc(Nc3ccc(OC(F)(F)F)cc3)nc12 | –
24 | – | FC(F)(F)c1ccc(Nc2ccc3cccc(Cl)c3n2)cc1 | CC50 at 48 h [3]: ≥ 40 µM; CC50 at 48 h [4]: ≥ 40 µM

Row | IC50 (Caenorhabditis elegans [1]) [µM] | SMILES | also measured
25 | 18 | Fc1cccc2ccc(Nc3ccc(OC(F)(F)F)cc3)nc12 | Imax (Caenorhabditis elegans [2]): 69%
26 | 11 | Clc1cccc(Nc2ccc3cccc(Cl)c3n2)c1 | CC50 at 48 h [3]: ≥ 40 µM; CC50 at 48 h [4]: ≥ 40 µM
27 | > 40 | N#Cc1ccc(Nc2ccc3cccc(Cl)c3n2)cc1 | –
28 | 28 | Cc1ccc(Nc2ccc3cccc(Cl)c3n2)cc1 | Imax (Caenorhabditis elegans [2]): 59%
29 | > 40 | FC(F)(F)Oc1cccc(Nc2ccc3cccc(Cl)c3n2)c1 | –
30 | > 40 | COc1ccccc1Nc1ccc2cccc(Cl)c2n1 | –
31 | 78 | CN(c1ccc(OC(F)(F)F)cc1)c1ccc2cccc(Cl)c2n1 | Imax (Caenorhabditis elegans [2]): 81%; CC50 at 48 h [3]: ≥ 40 µM; CC50 at 48 h [4]: ≥ 40 µM
32 | 16 | Fc1ccc(Nc2ccc3cccc(Cl)c3n2)cc1 | Imax (Caenorhabditis elegans [2]): 57%
33 | > 40 | FC(F)(F)c1ccc(Nc2ccc3cccc(Cl)c3n2)cc1C(F)(F)F | –
34 | 0.03 | C[C@](C#N)(COc1cc(C#N)ccc1C(F)(F)F)NC(=O)c1ccc(SC(F)(F)F)cc1 [MONEPANTEL] | –
35 | 11 | FC(F)(F)Oc1ccc(Nc2cc(Cl)c3ccccc3n2)cc1 | –
36 | > 40 | FC(F)(F)Oc1ccc(Nc2ccc3cccc(Cl)c3n2)cc1Cl | –
37 | 11 | Clc1cccc2ccc(Nc3ccccc3)nc12 | Imax (Caenorhabditis elegans [1]; time 40 hrs): 52%
38 | > 40 | Cc1cccc2ccc(Nc3ccc(OC(F)(F)F)cc3)nc12 | –
39 | > 40 | Clc1cccc2ccc(Nc3ccccc3-c3ccccc3)nc12 | –
40 | 22 | Cc1cccc(Nc2ccc3cccc(Cl)c3n2)c1 | –
41 | 5.9 | FC(F)(F)Oc1ccc(Nc2ccc3cccc(Br)c3n2)cc1 | Imax (Caenorhabditis elegans [2]): 67%
42 | > 40 | FC(F)(F)Oc1ccc(Nc2ccc3cc(Cl)ccc3n2)cc1 | –
43 | > 40 | FC(F)(F)Oc1ccc(Nc2ccc3cccc(-c4ccccc4)c3n2)cc1 | –
44 | 7.2 | FC(F)(F)Oc1ccc(Nc2ccc3cccc(Cl)c3n2)cc1 [OBEFAZIMOD] | Imax (Caenorhabditis elegans [2]): 94%
45 | > 40 | Fc1ccccc1Nc1ccc2cccc(Cl)c2n1 | –
46 | > 40 | FC(F)(F)Oc1ccc(Nc2ccc3ccccc3n2)cc1 | –
47 | 6.9 | Clc1ccc(Nc2ccc3cccc(Cl)c3n2)cc1Cl | Imax (Caenorhabditis elegans [2]): 100%; CC50 at 48 h [3]: ≥ 40 µM; CC50 at 48 h [4]: ≥ 40 µM
